Data: patent US6395260B1, “Topical cosmetic compositions comprising benzaldoximes” (Haarmann & Reimer GmbH, priority 1999, dated 2002)

SMILES | melting point
ON=Cc1cc(O)c(O)c(O)c1 [Test compound 2, 3,4,5-trihydroxybenzaldoxime] | 177 °C (dec.)
CCON=Cc1ccc(OC)c(O)c1 [Test compound 3, 3-hydroxy-4-methoxybenzaldehyde O-ethyloxime] | 61.4 °C
CCON=Cc1ccc(O)c(OCC)c1 [Test compound 4, 3-ethoxy-4-hydroxybenzaldehyde O-ethyloxime] | 43 °C
ON=Cc1ccc(O)c(O)c1 [Test compound 5, 3,4-dihydroxybenzaldoxime] | 143 °C (dec.)
COc1ccc(C=NO)cc1O [Test compound 6, 3-hydroxy-4-methoxybenzaldoxime] | 142.4 °C
CCON=Cc1ccc(O)c(OC)c1 [Test compound 7, 4-hydroxy-3-methoxybenzaldehyde O-ethyloxime] | 31.7 °C
Cc1ccc(CON=Cc2ccc(O)c(O)c2)cc1 [Test compound 8, 3,4-dihydroxybenzaldehyde O-(4-methylbenzyl)-oxime] | 85 to 86 °C
CCOc1cc(C=NO)ccc1O [Test compound 9, 3-ethoxy-4-hydroxybenzaldoxime] | 189 °C (dec.)
COc1cc(C=NO)ccc1O [Test compound 10, 4-hydroxy-3-methoxybenzaldoxime] | 118.2 °C
CCON=Cc1ccc(O)c(O)c1 [Test compound 11, 3,4-dihydroxybenzaldehyde O-ethyloxime] | 23 °C
